In test [1] the target is Diacylglycerol kinase alpha (Homo sapiens, UniProt P23743). Put plainly: In Vitro DGK Inhibition Assays. Here is the method:
DGK α and ζ kinase use ATP to phosphorylate the substrate 1,2-dilauroyl-sn-glycerol (DLG, incorporated in the liposomes). ATP is converted to ADP as a result of this enzymatic reaction. After the kinase reaction, an ATP-depletion reagent is added to terminate the kinase reaction and deplete any remaining ATP, leaving only ADP. Second, a detection reagent is added to simultaneously convert ADP to ATP and allow the newly synthesized ATP to be converted to light using a coupled luciferase/luciferin reaction. A concentrated liposome solution was prepared in assay buffer without DTT and BSA: 2 mM of DLG in 21 mM of total liposome (2 mM DLG/8 mM PS/11 mM PC). […] The reactions were started by addition of DGK α and ζ kinases at 4 nM and 2 nM final concentrations, respectively. After 1 hour reaction, the amount of ADP formed was detected with the ADP-Glo kinase assay (Promega) according to the manufacturer instructions. Compounds were added in 11-points dose response, starting at […], 1:3 dilutions, with a final DMSO concentration of 2%. The multidrop combi was used as a liquid handler and luminescence was read with 0.5 s by the envision reader (PE).

Test [2] concerns the target Diacylglycerol kinase zeta (Homo sapiens, UniProt Q13574).

Molecules are shown by their SMILES.

Diacylglycerol kinase zeta, sequence (Q13574 as listed by the source): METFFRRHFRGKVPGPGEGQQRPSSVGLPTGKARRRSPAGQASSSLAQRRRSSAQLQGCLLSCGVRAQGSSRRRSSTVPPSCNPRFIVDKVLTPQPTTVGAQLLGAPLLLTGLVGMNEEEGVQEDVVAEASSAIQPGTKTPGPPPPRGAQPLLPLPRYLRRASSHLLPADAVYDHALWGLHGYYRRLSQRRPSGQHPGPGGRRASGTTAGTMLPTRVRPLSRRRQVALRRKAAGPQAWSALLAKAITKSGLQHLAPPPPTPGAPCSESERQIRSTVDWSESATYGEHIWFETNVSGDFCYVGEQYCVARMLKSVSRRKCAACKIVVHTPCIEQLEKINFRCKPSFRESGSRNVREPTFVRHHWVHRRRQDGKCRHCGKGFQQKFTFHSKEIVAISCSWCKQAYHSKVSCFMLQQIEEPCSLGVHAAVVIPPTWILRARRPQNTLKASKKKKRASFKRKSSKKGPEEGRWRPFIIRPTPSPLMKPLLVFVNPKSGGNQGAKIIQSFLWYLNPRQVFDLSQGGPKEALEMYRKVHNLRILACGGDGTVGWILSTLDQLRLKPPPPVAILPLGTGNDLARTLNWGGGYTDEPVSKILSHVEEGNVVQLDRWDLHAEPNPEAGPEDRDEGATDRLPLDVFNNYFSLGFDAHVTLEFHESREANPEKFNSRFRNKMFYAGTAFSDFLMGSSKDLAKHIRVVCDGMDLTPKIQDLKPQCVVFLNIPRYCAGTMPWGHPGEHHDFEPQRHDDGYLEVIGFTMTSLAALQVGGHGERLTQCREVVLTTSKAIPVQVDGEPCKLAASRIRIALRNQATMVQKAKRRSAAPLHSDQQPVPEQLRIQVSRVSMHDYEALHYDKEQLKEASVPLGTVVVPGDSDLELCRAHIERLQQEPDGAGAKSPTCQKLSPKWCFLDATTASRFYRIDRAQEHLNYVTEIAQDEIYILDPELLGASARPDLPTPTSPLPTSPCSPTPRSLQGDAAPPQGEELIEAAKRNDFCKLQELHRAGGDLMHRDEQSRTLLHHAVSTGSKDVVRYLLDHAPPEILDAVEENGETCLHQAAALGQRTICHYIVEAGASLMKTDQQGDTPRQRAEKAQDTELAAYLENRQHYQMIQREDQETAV
Diacylglycerol kinase alpha, sequence (P23743 whole entry): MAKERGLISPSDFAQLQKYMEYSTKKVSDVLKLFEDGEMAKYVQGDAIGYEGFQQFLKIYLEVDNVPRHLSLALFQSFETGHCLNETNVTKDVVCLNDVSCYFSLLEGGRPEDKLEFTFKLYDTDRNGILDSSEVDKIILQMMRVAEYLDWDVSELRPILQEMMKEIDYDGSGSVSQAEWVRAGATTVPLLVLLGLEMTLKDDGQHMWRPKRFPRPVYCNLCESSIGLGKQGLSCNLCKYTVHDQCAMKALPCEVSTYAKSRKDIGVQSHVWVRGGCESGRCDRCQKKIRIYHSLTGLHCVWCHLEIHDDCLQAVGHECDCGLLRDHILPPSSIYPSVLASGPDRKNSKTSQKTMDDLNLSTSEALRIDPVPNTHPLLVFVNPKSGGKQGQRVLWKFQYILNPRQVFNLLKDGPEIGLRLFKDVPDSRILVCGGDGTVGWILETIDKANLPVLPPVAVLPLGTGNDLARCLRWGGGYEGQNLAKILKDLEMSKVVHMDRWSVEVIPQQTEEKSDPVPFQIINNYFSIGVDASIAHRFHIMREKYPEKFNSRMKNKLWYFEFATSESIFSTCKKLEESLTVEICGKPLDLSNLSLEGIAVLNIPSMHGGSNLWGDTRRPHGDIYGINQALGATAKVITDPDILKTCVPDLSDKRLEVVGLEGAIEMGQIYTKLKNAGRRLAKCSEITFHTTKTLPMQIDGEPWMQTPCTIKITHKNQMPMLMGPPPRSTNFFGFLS

As a reminder, the IC50 is the concentration at which inhibition is half-maximal. A lower IC50 goes with higher potency. As for `CN(C)C(=O)c1nnc(-c2cc3c(cc2F)S(=O)(=O)C[C@H](N)C(=O)N3Cc2ccc(Cl)cc2)o1` [US20240368150, Example 87], the IC50 was 3.06 µM in test [1] and 3.67 µM in test [2].
The like results for `COC1(c2nnc(-c3ccc4c(c3)N(Cc3ccc(Cl)cc3)C(=O)[C@@H](N)CS4(=O)=O)o2)CCC(F)(F)CC1` [US20240368150, Example 378] were, in that order, 4.06 µM and 1.44 µM.

These data come from BindingDB's records for patent US20240368150 (Hoffmann-La Roche, 2024).
